Data as given in PubChem BioAssay AID1963971 (Molecular Pharmacology Branch, DTP, NCI, 2024).
Several values for one entry are separate records, joined by “and”; a condition that tells them apart may be missing. Identical values can stand only once.

System: 953936-095-R-J2-PDC spheroids with HUVEC/MSC, viability
Test: Anticancer human tumor 953936-095-R-J2-PDC patient-derived cervical squamous cell carcinoma cell line growth inhibition [PI3K]
Settings: for viability, T/C: stronger effect = lower value
Text: Combinatorial screen of targeted agents with the PI3K inhibitors inavolisib, alpelisib, duvelisib, and copanlisib in multi-cell type tumor spheroids
A high-throughput screen of multi-cell type tumor spheroids was designed to identify active combinations of targeted small molecules and PI3K pathway inhibitors. Complex spheroids include a stromal component modeled by human endothelial cells (HUVEC) and fibroblasts modeled by human mesenchymal stem cells (MSCs). The concentration ranges selected for each drug and investigational agent were based upon clinically achievable concentrations if the clinical Cmax of the agent was known.
Compounds. The drugs and investigational agents: inavolisib (NSC800729), alpelisib (NSC765974), duvelisib (NSC772469), copanlisib (NSC816437), ipatasertib (NSC767898), afuresertib (NSC778305), talazoparib (NSC767125), sapanisertib (NSC764658), selumetinib (NSC741078), tovorafenib (DAY101, NSC766906), vemurafenib (NSC761431), ravoxertinib (NSC781343), sotorasib (NSC818433), MRTX1133 (NSC 836407), abemaciclib (NSC 768073), palbociclib (NSC758247), venetoclax (NSC 766270), SY5609 (NSC837396), enzalutamide (NSC755605), and darolutamide (NSC825331), were obtained from the National Cancer Institute (NCI) Developmental Therapeutics Program Chemical Repository. The FDA-approved anticancer drug set is available from the NCI Developmental Therapeutics Program. […] The stock solutions were prepared in dimethyl sulfoxide (DMSO, Sigma-Aldrich, St. Louis, MO, cat. D2650) at 800-fold the tested concentration and stored at -70 degrees C prior to their use. All drugs and investigational agents were tested over a range starting from a high concentration at or near the clinical Cmax and decreasing in half-log increments. If the clinical Cmax for an agent had not been determined, the highest concentration tested was 10 microM.
Cell Culture. All cells were maintained in an incubator at 37 degrees C and 5% CO2 with 95% humidity. The PDC lines were cultured according to standard operating procedures established by the NCI PDMR (https://pdmr.cancer.gov/sops/default.htm). All PDCs were thawed and cultured in Matrigel-coated flasks prepared with a working solution of 1X Ham's F-12 nutrient mix, without supplementation (Invitrogen, Waltham, MA, cat. 11765054), 100 U/mL penicillin-streptomycin (Invitrogen, cat. 15140122), and 2.5% Matrigel (Corning Inc., Corning, NY, cat. 354248) for the first three passages. The 354836-022-R-J1-PDC, 475296-252-R-J1-PDC, and 997726-040-R-J2-PDC lines were cultured in 6A media, which includes advanced DMEM/F-12 (Thermo Fisher Scientific, cat. 12634028), 10 mM HEPES (Thermo Fisher Scientific, cat. 15630080), 1X GlutaMAX supplement (Thermo Fisher Scientific, cat. 35050061), 0.1 mg/mL primocin (InvivoGen, San Diego, CA, cat. ant-pm-2), 10% defined fetal bovine serum, heat inactivated (HyClone Laboratories Inc., Logan, UT, cat. SH30070.03HI), 50% L-WRN conditioned media (ATCC, cat. CRL-3276), 1.25 mM N-Acetyl-L-cysteine (Sigma-Aldrich, cat. A9165), 10 mM nicotinamide (Sigma-Aldrich, cat. N0636), 1X B-27 supplement (Thermo Fisher Scientific, cat. 17504044), 1X N-2 supplement (Thermo Fisher Scientific, cat. 17502048), and 10 microM Y-27632 dihydrochloride (Tocris Bioscience, Bristol, United Kingdom, cat. 1254). The 624824-186-R-J2-PDC line was cultured in 6C/Colon 1B media, which includes all 6A media components plus 50 ng/mL human EGF recombinant protein (Thermo Fisher Scientific, cat. PHG0311). […]

[1] = curve of first compound, second compound 0.0316 µM
[2] = curve of first compound, second compound 0.1 µM
[3] = curve of first compound, second compound 0.316 µM
[4] = curve of first compound, second compound 1 µM
[5] = curve of first compound, second compound 3.16 µM
[6] = curve of first compound, second compound 10 µM
[7] = second compound 0.0316 µM, first compound 0.0316 µM
[8] = second compound 0.0316 µM, first compound 0.1 µM
[9] = second compound 0.0316 µM, first compound 0.316 µM
[10] = second compound 0.0316 µM, first compound 1 µM
[11] = second compound 0.0316 µM, first compound 3.16 µM
[12] = second compound 0.0316 µM, first compound 10 µM
[13] = second compound 0.1 µM, first compound 0.0316 µM
[14] = second compound 0.1 µM, first compound 0.1 µM
[15] = second compound 0.1 µM, first compound 0.316 µM
[16] = second compound 0.1 µM, first compound 1 µM
[17] = second compound 0.1 µM, first compound 3.16 µM
[18] = second compound 0.1 µM, first compound 10 µM
[19] = second compound 0.316 µM, first compound 0.0316 µM
[20] = second compound 0.316 µM, first compound 0.1 µM
[21] = second compound 0.316 µM, first compound 0.316 µM
[22] = second compound 0.316 µM, first compound 1 µM
[23] = second compound 0.316 µM, first compound 3.16 µM
[24] = second compound 0.316 µM, first compound 10 µM
[25] = second compound 1 µM, first compound 0.0316 µM
[26] = second compound 1 µM, first compound 0.1 µM
[27] = second compound 1 µM, first compound 0.316 µM
[28] = second compound 1 µM, first compound 1 µM
[29] = second compound 1 µM, first compound 3.16 µM
[30] = second compound 1 µM, first compound 10 µM
[31] = second compound 3.16 µM, first compound 0.0316 µM
[32] = second compound 3.16 µM, first compound 0.1 µM
[33] = second compound 3.16 µM, first compound 0.316 µM
[34] = second compound 3.16 µM, first compound 1 µM
[35] = second compound 3.16 µM, first compound 3.16 µM
[36] = second compound 3.16 µM, first compound 10 µM
[37] = second compound 10 µM, first compound 0.0316 µM
[38] = second compound 10 µM, first compound 0.1 µM
[39] = second compound 10 µM, first compound 0.316 µM
[40] = second compound 10 µM, first compound 1 µM
[41] = second compound 10 µM, first compound 3.16 µM
[42] = second compound 10 µM, first compound 10 µM
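Also: spheroids exposed to compounds for seven days before read-out.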

Cn1ncc(Cl)c1-c1cc(C(=O)NC(CN)Cc2cccc(F)c2)sc1Cl (stereo not drawn) + CC(Nc1ncnc2nc[nH]c12)c1cc2cccc(Cl)c2c(=O)n1-c1ccccc1
IC50 [1]: 0.63 µM | IC50 [2]: 0.617 µM | IC50 [3]: 0.547 µM | IC50 [4]: 0.49 µM | IC50 [5]: 0.467 µM | IC50 [6]: 0.146 µM | viability, T/C [7]: 96.5% | viability, T/C [8]: 90.2% | viability, T/C [9]: 67.9% | viability, T/C [10]: 36.9% | viability, T/C [11]: 21.8% | viability, T/C [12]: 12% | viability, T/C [13]: 95.2% | viability, T/C [14]: 90% | viability, T/C [15]: 67% | viability, T/C [16]: 37.5% | viability, T/C [17]: 20% | viability, T/C [18]: 14.9% | viability, T/C [19]: 94.1% | viability, T/C [20]: 81.6% | viability, T/C [21]: 58.4% | viability, T/C [22]: 40% | viability, T/C [23]: 22.4% | viability, T/C [24]: 12.6% | viability, T/C [25]: 95.5% | viability, T/C [26]: 83.5% | viability, T/C [27]: 58.1% | viability, T/C [28]: 36.3% | viability, T/C [29]: 18.1% | viability, T/C [30]: 13.5% | viability, T/C [31]: 82.3% | viability, T/C [32]: 77.8% | viability, T/C [33]: 56.7% | viability, T/C [34]: 34.4% | viability, T/C [35]: 18% | viability, T/C [36]: 8.95% | viability, T/C [37]: 55.5% | viability, T/C [38]: 54.5% | viability, T/C [39]: 42.9% | viability, T/C [40]: 30.5% | viability, T/C [41]: 14.6% | viability, T/C [42]: 5.78%

C[C@@H](NC(=O)c1ncnc(N)c1Cl)c1ncc(C(=O)Nc2cc(C(F)(F)F)c(Cl)cn2)s1
viability, T/C (compound 0.0316 µM): 105% (2×) and 98.5% and 118% | viability, T/C (compound 0.1 µM): 104% (3×) and 103% | viability, T/C (compound 0.316 µM): 110% [middle of 4 runs] | viability, T/C (compound 1 µM): 115% [middle of 4 runs] | viability, T/C (compound 3.16 µM): 108% [middle of 4 runs] | viability, T/C (compound 10 µM): 102% [middle of 4 runs] | IC50 (curve of compound): > 10 µM

CCCS(=O)(=O)Nc1ccc(F)c(C(=O)c2c[nH]c3ncc(-c4ccc(Cl)cc4)cc23)c1F + Cc1nc(NC(=O)N2CCCC2C(N)=O)sc1-c1ccnc(C(C)(C)C(F)(F)F)c1
IC50 [1]: 5.03 µM | IC50 [2]: 4.88 µM | IC50 [3]: 4.28 µM | IC50 [4]: < 0.0316 µM | IC50 [5]: < 0.0316 µM | IC50 [6]: < 0.0316 µM | viability, T/C [7]: 90.7% | viability, T/C [8]: 95.1% | viability, T/C [9]: 95.8% | viability, T/C [10]: 99.2% | viability, T/C [11]: 83.2% | viability, T/C [12]: 0.75% | viability, T/C [13]: 82.6% | viability, T/C [14]: 88.3% | viability, T/C [15]: 86.1% | viability, T/C [16]: 92.9% | viability, T/C [17]: 80% | viability, T/C [18]: 0.68% | viability, T/C [19]: 64.6% | viability, T/C [20]: 65.1% | viability, T/C [21]: 66.9% | viability, T/C [22]: 73.8% | viability, T/C [23]: 68.2% | viability, T/C [24]: 0.57% | viability, T/C [25]: 46.6% | viability, T/C [26]: 45.9% | viability, T/C [27]: 47% | viability, T/C [28]: 50.2% | viability, T/C [29]: 37.3% | viability, T/C [30]: 0.59% | viability, T/C [31]: 26.6% | viability, T/C [32]: 26.2% | viability, T/C [33]: 27.5% | viability, T/C [34]: 25.5% | viability, T/C [35]: 20.2% | viability, T/C [36]: 1.4% | viability, T/C [37]: 11.7% | viability, T/C [38]: 12.8% | viability, T/C [39]: 13.7% | viability, T/C [40]: 14.2% | viability, T/C [41]: 9.62% | viability, T/C [42]: 0.42%

CC(C)n1nc(-c2ccc3oc(N)nc3c2)c2c(N)ncnc21 + CC(Nc1ncnc2nc[nH]c12)c1cc2cccc(Cl)c2c(=O)n1-c1ccccc1
IC50 [1]: 0.0338 µM | IC50 [2]: 0.029 µM | IC50 [3]: 0.0193 µM | IC50 [4]: 0.0307 µM | IC50 [5]: 0.0218 µM | IC50 [6]: 0.0113 µM | viability, T/C (second compound 0.0316 µM, first compound 0.000316 µM): 88.3% | viability, T/C (second compound 0.0316 µM, first compound 0.001 µM): 98.9% | viability, T/C (second compound 0.0316 µM, first compound 0.00316 µM): 93.9% | viability, T/C (second compound 0.0316 µM, first compound 0.01 µM): 73.9% | viability, T/C [7]: 53.7% | viability, T/C [8]: 18.2% | viability, T/C (second compound 0.1 µM, first compound 0.000316 µM): 101% | viability, T/C (second compound 0.1 µM, first compound 0.001 µM): 95% | viability, T/C (second compound 0.1 µM, first compound 0.00316 µM): 85.1% | viability, T/C (second compound 0.1 µM, first compound 0.01 µM): 77.1% | viability, T/C [13]: 46.3% | viability, T/C [14]: 16.5% | viability, T/C (second compound 0.316 µM, first compound 0.000316 µM): 112% | viability, T/C (second compound 0.316 µM, first compound 0.001 µM): 87.6% | viability, T/C (second compound 0.316 µM, first compound 0.00316 µM): 77.9% | viability, T/C (second compound 0.316 µM, first compound 0.01 µM): 66.9% | viability, T/C [19]: 46.8% | viability, T/C [20]: 17.2% | viability, T/C (second compound 1 µM, first compound 0.000316 µM): 95.1% | viability, T/C (second compound 1 µM, first compound 0.001 µM): 84.2% | viability, T/C (second compound 1 µM, first compound 0.00316 µM): 77.7% | viability, T/C (second compound 1 µM, first compound 0.01 µM): 65% | viability, T/C [25]: 56% | viability, T/C [26]: 15.9% | viability, T/C (second compound 3.16 µM, first compound 0.000316 µM): 73.3% | viability, T/C (second compound 3.16 µM, first compound 0.001 µM): 70.5% | viability, T/C (second compound 3.16 µM, first compound 0.00316 µM): 68.8% | viability, T/C (second compound 3.16 µM, first compound 0.01 µM): 68.8% | viability, T/C [31]: 41.1% | viability, T/C [32]: 14.6% | viability, T/C (second compound 10 µM, first compound 0.000316 µM): 57.7% | viability, T/C (second compound 10 µM, first compound 0.001 µM): 57.3% | viability, T/C (second compound 10 µM, first compound 0.00316 µM): 53.3% | viability, T/C (second compound 10 µM, first compound 0.01 µM): 52.8% | viability, T/C [37]: 29.9% | viability, T/C [38]: 12.8%
